ChEMBL document CHEMBL3885881, “DrugMatrix”

Organism: Rattus norvegicus
Test: DrugMatrix - Regimen: Daily Repeat
Format: toxicity, organism-based, Sprague-Dawley
Design: regimen Daily Repeat, gender Male, age 6-8 weeks
Conditions: in vivo, po, […], route oral GAVAGE; for ABSOLUTE BASOPHIL / ABSOLUTE EOSINOPHIL / ABSOLUTE LYMPHOCYTE / ABSOLUTE MONOCYTE / ABSOLUTE SEGMENTED NEUTROPHIL / BASOPHIL / EOSINOPHIL / ERYTHROCYTE COUNT / HEMATOCRIT / HEMOGLOBIN / LEUKOCYTE COUNT / LYMPHOCYTE / MEAN CORPUSCULAR HEMOGLOBIN / MEAN CORPUSCULAR HEMOGLOBIN CONCENTRATION / MEAN CORPUSCULAR VOLUME / MONOCYTE / NEUTROPHIL / NUCLEATED RED BLOOD CELLS / PLATELET COUNT: tissue Blood; for ALANINE AMINOTRANSFERASE / ALBUMIN / ALKALINE PHOSPHATASE / ASPARTATE AMINOTRANSFERASE / BLOOD UREA NITROGEN / CARBON DIOXIDE / CHLORIDE / CHOLESTEROL / CREATINE PHOSPHOKINASE / CREATININE / GLUCOSE / LACTATE DEHYDROGENASE / LIPASE / PHOSPHORUS / POTASSIUM / SODIUM / TOTAL BILIRUBIN / TOTAL PROTEIN / URIC ACID: tissue Plasma
[1] = 30 mg/kg, dose level Low, time 7 day
[2] = 60 mg/kg, 72 h, dose level High, time 3 day
[3] = 60 mg/kg, dose level High, time 7 day

## S=C=Nc1cccc2ccccc12 [1-NAPHTHYLISOTHIOCYANATE]
[1]
  ABSOLUTE BASOPHIL: 0 CELLS/uL
  ABSOLUTE EOSINOPHIL: 0 CELLS/uL
  ABSOLUTE LYMPHOCYTE: 18648 CELLS/uL
  ABSOLUTE MONOCYTE: 658.33 CELLS/uL
  ABSOLUTE SEGMENTED NEUTROPHIL: 6027 CELLS/uL
  BASOPHIL: 0%
  EOSINOPHIL: 0%
  ERYTHROCYTE COUNT: 5.54 x10E6/uL
  HEMATOCRIT: 31.6%
  HEMOGLOBIN: 13.02 G/DL
  LEUKOCYTE COUNT: 25.33 x10E3/uL
  LYMPHOCYTE: 74.17%
  MEAN CORPUSCULAR HEMOGLOBIN: 23.55 pg
  MEAN CORPUSCULAR HEMOGLOBIN CONCENTRATION: 41.2 G/DL
  MEAN CORPUSCULAR VOLUME: 57.07 fL
  MONOCYTE: 2.33%
  NEUTROPHIL: 23.5%
  NUCLEATED RED BLOOD CELLS: 0 /100WBC
  PLATELET COUNT: 1468.17 x10E3/uL
  ALANINE AMINOTRANSFERASE: 195.83 u/L
  ALBUMIN: 3.78 G/DL
  ALKALINE PHOSPHATASE: 515.67 u/L
  ASPARTATE AMINOTRANSFERASE: 302 u/L
  BLOOD UREA NITROGEN: 11.83 mg/dL
  CARBON DIOXIDE: 27.67 mmol/L
  CHLORIDE: 96.67 MEQ/L
  CHOLESTEROL: 137 mg/dL
  CREATINE PHOSPHOKINASE: 291.83 u/L
  CREATININE: 0.18 mg/dL
  GLUCOSE: 98.33 mg/dL
  LACTATE DEHYDROGENASE: 164.67 u/L
  LIPASE: 11 u/L
  PHOSPHORUS: 8.68 mg/dL
  POTASSIUM: 6.99 MEQ/L
  SODIUM: 139.38 MEQ/L
  TOTAL BILIRUBIN: 3.15 mg/dL
  TOTAL PROTEIN: 6.52 G/DL
  URIC ACID: 0.93 mg/dL
[2]
  ABSOLUTE BASOPHIL: 0 CELLS/uL
  ABSOLUTE EOSINOPHIL: 24.67 CELLS/uL
  ABSOLUTE LYMPHOCYTE: 8862.67 CELLS/uL
  ABSOLUTE MONOCYTE: 317.33 CELLS/uL
  ABSOLUTE SEGMENTED NEUTROPHIL: 2312 CELLS/uL
  BASOPHIL: 0%
  EOSINOPHIL: 0.33%
  ERYTHROCYTE COUNT: 6.41 x10E6/uL
  HEMATOCRIT: 39.08%
  HEMOGLOBIN: 14.75 G/DL
  LEUKOCYTE COUNT: 11.52 x10E3/uL
  LYMPHOCYTE: 77%
  MEAN CORPUSCULAR HEMOGLOBIN: 23 pg
  MEAN CORPUSCULAR HEMOGLOBIN CONCENTRATION: 37.77 G/DL
  MEAN CORPUSCULAR VOLUME: 60.88 fL
  MONOCYTE: 2.5%
  NEUTROPHIL: 20.17%
  NUCLEATED RED BLOOD CELLS: 0.17 /100WBC
  PLATELET COUNT: 1204.67 x10E3/uL
  ALANINE AMINOTRANSFERASE: 183.5 u/L
  ALBUMIN: 3.77 G/DL
  ALKALINE PHOSPHATASE: 566.83 u/L
  ASPARTATE AMINOTRANSFERASE: 458.5 u/L
  BLOOD UREA NITROGEN: 11.67 mg/dL
  CARBON DIOXIDE: 28.67 mmol/L
  CHLORIDE: 94.67 MEQ/L
  CHOLESTEROL: 312 mg/dL
  CREATINE PHOSPHOKINASE: 420.5 u/L
  CREATININE: 0.28 mg/dL
  GLUCOSE: 125.17 mg/dL
  LACTATE DEHYDROGENASE: 229.33 u/L
  LIPASE: 12.5 u/L
  PHOSPHORUS: 8.75 mg/dL
  POTASSIUM: 6.43 MEQ/L
  SODIUM: 140.67 MEQ/L
  TOTAL BILIRUBIN: 3.47 mg/dL
  TOTAL PROTEIN: 6.93 G/DL
  URIC ACID: 0.85 mg/dL
[3]
  ABSOLUTE BASOPHIL: 0 CELLS/uL
  ABSOLUTE EOSINOPHIL: 0 CELLS/uL
  ABSOLUTE LYMPHOCYTE: 17693.83 CELLS/uL
  ABSOLUTE MONOCYTE: 897.83 CELLS/uL
  ABSOLUTE SEGMENTED NEUTROPHIL: 12275 CELLS/uL
  BASOPHIL: 0%
  EOSINOPHIL: 0%
  ERYTHROCYTE COUNT: 5.43 x10E6/uL
  HEMATOCRIT: 31.22%
  HEMOGLOBIN: 12.83 G/DL
  LEUKOCYTE COUNT: 30.87 x10E3/uL
  LYMPHOCYTE: 60.83%
  MEAN CORPUSCULAR HEMOGLOBIN: 23.63 pg
  MEAN CORPUSCULAR HEMOGLOBIN CONCENTRATION: 41.02 G/DL
  MEAN CORPUSCULAR VOLUME: 57.68 fL
  MONOCYTE: 2.67%
  NEUTROPHIL: 36.5%
  NUCLEATED RED BLOOD CELLS: 0 /100WBC
  PLATELET COUNT: 1574.83 x10E3/uL
  ALANINE AMINOTRANSFERASE: 179.83 u/L
  ALBUMIN: 3.78 G/DL
  ALKALINE PHOSPHATASE: 516 u/L
  ASPARTATE AMINOTRANSFERASE: 418 u/L
  BLOOD UREA NITROGEN: 12.33 mg/dL
  CARBON DIOXIDE: 26.67 mmol/L
  CHLORIDE: 94 MEQ/L
  CHOLESTEROL: 384.5 mg/dL
  CREATINE PHOSPHOKINASE: 339.67 u/L
  CREATININE: 0.1 mg/dL
  GLUCOSE: 96.33 mg/dL
  LACTATE DEHYDROGENASE: 286.67 u/L
  LIPASE: 12.17 u/L
  PHOSPHORUS: 8.75 mg/dL
  POTASSIUM: 6.62 MEQ/L
  SODIUM: 137.88 MEQ/L
  TOTAL BILIRUBIN: 8.2 mg/dL
  TOTAL PROTEIN: 6.48 G/DL
  URIC ACID: 0.87 mg/dL
